Reference: patent US20020137929A1, “1 - (3-heterocyclylphenyl) isothiourea, -isourea, -guanidine and -amidine herbicidal agents” (Intellectual Property Department, BASF Aktiengesellschaft, priority 1998, published 2002)

Columns and labels:
ZEAMX (Corn, Field) = assay: Preemergence herbicidal evaluation; assay type: in vivo, Zea mays; details: rated 4-5 weeks after treatment
How it was run: (§1)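 Herbicidal effect scored visually, 0-9, at 4 to 5 weeks against a control; compound applied preemergence by aqueous acetone spray to seeded soil at about 0.0156 to 0.500 kg/ha.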

ABUTH (Velvetleaf) = assay: Postemergence herbicidal evaluation; assay type: in vivo, Abutilon theophrasti
How it was run: (§2)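 Visual 0–9 rating versus control (stand, vigor, malformation, size, chlorosis, overall appearance), taken four to five weeks post-spray. Two-week-old seedlings received roughly 0.0156–0.500 kg/ha active in acetone/water (50/50) with 0.5% TWEEN 20 via nozzle at 40 psi.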

GALAP (Galium) = assay: Preemergence herbicidal evaluation; assay type: in vivo, Galium aparine; details: rated 4-5 weeks after treatment
How it was run: as §1

[1] = test system: GLXMAW (Soybean, Williams); assay: Postemergence herbicidal evaluation; assay type: in vivo, Glycine max, (L.) Merr. cv Williams
How it was run: as §2

CASOB (Sicklepod) = assay: Preemergence herbicidal evaluation; assay type: in vivo, Cassia obtusifolia; details: rated 4-5 weeks after treatment
How it was run: as §1

SETVI (Foxtail, Green) = assay: Postemergence herbicidal evaluation; assay type: in vivo, Setaria viridis
How it was run: as §2

AMBEL (Ragweed, Common) = assay: Postemergence herbicidal evaluation; assay type: in vivo, Ambrosia artemisifolia
How it was run: as §2

[2] = test system: IPOHE (Morningglory, Ivyleaf); assay: Preemergence herbicidal evaluation; assay type: in vivo, Ipomoea hederacea; details: rated 4-5 weeks after treatment
How it was run: as §1

[3] = test system: IPOHE (Morningglory, Ivyleaf); assay: Postemergence herbicidal evaluation; assay type: in vivo, Ipomoea hederacea
How it was run: as §2

[4] = test system: ECHORC (Watergrass (Calif.)); assay: Postemergence weed control under flooded paddy conditions; assay type: in vivo, Echinochloa oryzoides; details: postemergence weeds, 3-4 weeks after treatment
How it was run: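 Injury ratings (0–9 scale covering stand, vigor, malformation, size, chlorosis and overall appearance versus control) were made three to four weeks after treatment. Test material, about 0.0313 to 0.500 kg/ha a.i. in 50/50 v/v aqueous/acetone, was added to flood water 1.5 to 3 cm deep over 3 to 5 cm weeds and 1.5 to 2.5 leaf rice.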

[5] = test system: TRZAWR (Wheat, Winter, cv Riband); assay: Postemergence herbicidal evaluation; assay type: in vivo, Triticum aestivum
How it was run: as §2

ECHCG (Barnyardgrass) [6] = assay: Preemergence herbicidal evaluation; assay type: in vivo, Echinochloa crus-galli; details: rated 4-5 weeks after treatment
How it was run: as §1

[7] = test system: CHEAL (Lambsquarters, Common); assay: Preemergence herbicidal evaluation; assay type: in vivo, Chenopodium album; details: rated 4-5 weeks after treatment
How it was run: as §1

ECHCG (Barnyardgrass) [8] = assay: Postemergence herbicidal evaluation; assay type: in vivo, Echinochloa crus-galli
How it was run: as §2

Compound: CCOC(=O)CN1C(=O)C[S+]([O-])/C1=N/c1cc(-n2c(=O)cc(C(F)(F)F)n(C)c2=O)c(F)cc1Cl (stereo not drawn) [Compound 45, 2-{{2-Chloro-5-[3,6-dihydro-3-methyl-2,6-dioxo-4-(trifluoromethyl)-1(2H)-pyrimidinyl]-4-fluoro-phenyl}imino}-4-oxo-3-thiazolidineacetic acid, ethyl ester, 1-oxide]
- Preemergence herbicidal rating ZEAMX (ZEAMX (Corn, Field); rate 0.0156 kg/ha): 0.0
- Preemergence herbicidal rating ZEAMX (ZEAMX (Corn, Field); rate 0.0313 kg/ha): 0.0
- Preemergence herbicidal rating ZEAMX (ZEAMX (Corn, Field); rate 0.0625 kg/ha): 0.0
- Preemergence herbicidal rating ZEAMX (ZEAMX (Corn, Field); rate 0.1250 kg/ha): 2.0
- Preemergence herbicidal rating ZEAMX (ZEAMX (Corn, Field); rate 0.2500 kg/ha): 4.0
- Postemergence herbicidal rating ABUTH (ABUTH (Velvetleaf); Rate 0.0156 kg/ha): 9.0
- Postemergence herbicidal rating ABUTH (ABUTH (Velvetleaf); Rate 0.0313 kg/ha): 9.0
- Postemergence herbicidal rating ABUTH (ABUTH (Velvetleaf); Rate 0.0625 kg/ha): 9.0
- Preemergence herbicidal rating GALAP (GALAP (Galium); rate 0.0156 kg/ha): 0.0
- Preemergence herbicidal rating GALAP (GALAP (Galium); rate 0.0313 kg/ha): 0.0
- Preemergence herbicidal rating GALAP (GALAP (Galium); rate 0.0625 kg/ha): 0.0
- Preemergence herbicidal rating GALAP (GALAP (Galium); rate 0.1250 kg/ha): 0.0
- Preemergence herbicidal rating GALAP (GALAP (Galium); rate 0.2500 kg/ha): 7.0
- Postemergence herbicidal rating GLXMAW ([1]; Rate 0.0156 kg/ha): 5.5
- Postemergence herbicidal rating GLXMAW ([1]; Rate 0.0313 kg/ha): 6.5
- Postemergence herbicidal rating GLXMAW ([1]; Rate 0.0625 kg/ha): 7.0
- Preemergence herbicidal rating CASOB (CASOB (Sicklepod); rate 0.0156 kg/ha): 0.0
- Preemergence herbicidal rating CASOB (CASOB (Sicklepod); rate 0.0313 kg/ha): 0.0
- Preemergence herbicidal rating CASOB (CASOB (Sicklepod); rate 0.0625 kg/ha): 0.0
- Preemergence herbicidal rating CASOB (CASOB (Sicklepod); rate 0.1250 kg/ha): 0.0
- Preemergence herbicidal rating CASOB (CASOB (Sicklepod); rate 0.2500 kg/ha): 0.0
- Postemergence herbicidal rating SETVI (SETVI (Foxtail, Green); Rate 0.0156 kg/ha): 0.0
- Postemergence herbicidal rating SETVI (SETVI (Foxtail, Green); Rate 0.0313 kg/ha): 0.0
- Postemergence herbicidal rating SETVI (SETVI (Foxtail, Green); Rate 0.0625 kg/ha): 2.0
- Postemergence herbicidal rating AMBEL (AMBEL (Ragweed, Common); Rate 0.0313 kg/ha): 4.0
- Postemergence herbicidal rating AMBEL (AMBEL (Ragweed, Common); Rate 0.0625 kg/ha): 9.0
- Preemergence herbicidal rating IPOHE ([2]; rate 0.0156 kg/ha): 0.0
- Preemergence herbicidal rating IPOHE ([2]; rate 0.0313 kg/ha): 0.0
- Preemergence herbicidal rating IPOHE ([2]; rate 0.0625 kg/ha): 0.0
- Preemergence herbicidal rating IPOHE ([2]; rate 0.1250 kg/ha): 0.0
- Preemergence herbicidal rating IPOHE ([2]; rate 0.2500 kg/ha): 1.0
- Postemergence herbicidal rating IPOHE ([3]; Rate 0.0156 kg/ha): 9.0
- Postemergence herbicidal rating IPOHE ([3]; Rate 0.0313 kg/ha): 9.0
- Postemergence herbicidal rating IPOHE ([3]; Rate 0.0625 kg/ha): 9.0
- Herbicidal rating ECHORC ([4]; rate 0.0313 kg/ha): 3.0
- Herbicidal rating ECHORC ([4]; rate 0.0625 kg/ha): 4.0
- Herbicidal rating ECHORC ([4]; rate 0.1250 kg/ha): 7.0
- Herbicidal rating ECHORC ([4]; rate 0.2500 kg/ha): 7.0
- Postemergence herbicidal rating TRZAWR ([5]; Rate 0.0156 kg/ha): 4.0
- Postemergence herbicidal rating TRZAWR ([5]; Rate 0.0313 kg/ha): 4.0
- Postemergence herbicidal rating TRZAWR ([5]; Rate 0.0625 kg/ha): 4.5
- Preemergence herbicidal rating ECHCG (ECHCG (Barnyardgrass) [6]; rate 0.0156 kg/ha): 0.0
- Preemergence herbicidal rating ECHCG (ECHCG (Barnyardgrass) [6]; rate 0.0313 kg/ha): 0.0
- Preemergence herbicidal rating ECHCG (ECHCG (Barnyardgrass) [6]; rate 0.0625 kg/ha): 0.0
- Preemergence herbicidal rating ECHCG (ECHCG (Barnyardgrass) [6]; rate 0.1250 kg/ha): 0.0
- Preemergence herbicidal rating ECHCG (ECHCG (Barnyardgrass) [6]; rate 0.2500 kg/ha): 0.0
- Preemergence herbicidal rating CHEAL ([7]; rate 0.0156 kg/ha): 9.0
- Preemergence herbicidal rating CHEAL ([7]; rate 0.0313 kg/ha): 9.0
- Preemergence herbicidal rating CHEAL ([7]; rate 0.0625 kg/ha): 9.0
- Preemergence herbicidal rating CHEAL ([7]; rate 0.1250 kg/ha): 9.0
- Preemergence herbicidal rating CHEAL ([7]; rate 0.2500 kg/ha): 9.0
- Postemergence herbicidal rating ECHCG (ECHCG (Barnyardgrass) [8]; Rate 0.0156 kg/ha): 0.0
- Postemergence herbicidal rating ECHCG (ECHCG (Barnyardgrass) [8]; Rate 0.0313 kg/ha): 0.0
- Postemergence herbicidal rating ECHCG (ECHCG (Barnyardgrass) [8]; Rate 0.0625 kg/ha): 0.0
